Source: patent US20230293530A1, “AGENTS FOR SENSITIZING SOLID TUMORS TO TREATMENT” (Yeda Research and Development Co. Ltd., priority 2020, published 2023)

What was measured:
4T1 breast cancer cells = assay: Nucleotide levels by LC-MS in 4T1 cells with or without mizoribine (or L-Name); format: cell-based, murine; details: 300 µM mizoribine, 24 h
Procedure: B) The purine/pyrimidine ratio is increased upon glucose deprivation in murine breast cancer cells. 4T1 cells were grown in the absence of glucose for 24h (baseline) and 48h and quantified by liquid chromatography-mass spectrometry (LC-MS). Nucleotide levels were measured in µg/ml and corrected for protein concentration. Purine/pyrimidine ratio was calculated by dividing (AMP+GMP) by (UMP+CMP) relative concentrations. C) ASS1 inhibition decreases the purine/pyrimidine ration under glucose deprivation. 4T1 cells were grown in the presence or absence of glucose for 48 h and analysed as in 1B. […] Cells were grown and treated as in 5B. […] 4T1 cells were grown either with or without 300 µM mizoribine for 24 h. Nucleotide levels were measured by LC-MS. […] Each experiment was conducted with biological and technical replicates and repeated at least three times. G) A549 cells were grown for 48 hr in control medium or supplemented with 1.2 µM Methotrexate (Holland-Moran). Nucleotide levels were measured as described below by LC-MS. Purine/pyrimidine ratio was calculated by dividing (AMP+GMP+ATP+GTP) concentration by (UMP+CMP+TMP+UTP+CTP+TTP) concentration before and after methotrexate. All error bars represent SER. *P<0.05, **P<0.01. Each experiment was conducted with biological and technical replicates and repeated at least three times.
A) Purine/pyrimidine ratio is increased upon nutrient deprivation in […] colon cancer cells. MC38 cells were grown in either regular medium or in medium without glucose for 24 h. Nucleotide levels were measured by LC-MS. Purine/pyrimidine ratio was calculated by dividing (AMP+GMP) AUC by (UMP+CMP) AUC. B) 4T1 cells with and without shASS1 were grown in glucose free medium either supplemented or not with 10 mM L-Name for 48 hrs. Nucleotide levels were measured by LC-MS. Purine/pyrimidine ratio was calculated by dividing the sum levels of (AMP+GMP) by the sum levels of (UMP+CMP+TMP). […] MC38 cells were grown either with or without 300 µM mizoribine for 24 h. Nucleotide levels were measured by LC-MS. […] 4T1 (left panel) and MC38 cells (right panel) were grown for 24 h with or without 300 µM mizoribine. Cell viability was measured by crystal violet staining. Each experiment was conducted with biological and technical replicates and repeated at least three times. All error bars represent SER. * P<0.05, ** denotes P<0.01, ***P<0.001.
LC-MS analysis: The LC-MS/MS instrument consisting of an Acquity I-class UPLC system (Waters) and Xevo TQ-S triple quadrupole mass spectrometer (Waters), equipped with an electrospray ion source, and operated in positive ion mode was used for analysis of nucleoside monophosphates. MassLynx and TargetLynx software (version 4.1, Waters) were applied for the acquisition and analysis of data. Chromatographic separation was done on a 100 mm × 2.1 mm internal diameter, 1.8-µm UPLC HSS T3 column equipped with 50 mm × 2.1 mm internal diameter, 1.8-µm UPLC HSS T3 pre-column (both Waters Acquity) with mobile phases A (10 mM ammonium acetate and 5 mM ammonium hydrocarbonate buffer, pH 7.65 adjusted with 10% acetic acid) and B (acetonitrile) at a flow rate of 0.3 mL min-1 and column temperature 25° C. A gradient was used as follows: for 0-3 min the column was held at 0.2% B, then 3-3.5 min a linear increase to 100% B, 3.5-4.0 min held at 100% B, 4.0-4.5 min back to 0.2% B and equilibration at 0.2% B for 2.5 min. […] Nucleotide concentration was calculated using a standard curve of the relevant nucleotide concentration in each sample. […]

MC38 cells = assay: Nucleotide levels by LC-MS in MC38 cells with or without mizoribine; format: cell-based, mouse; details: 300 µM mizoribine, 24 h
Procedure: A) Purine/pyrimidine ratio is increased upon nutrient deprivation in […] colon cancer cells. MC38 cells were grown in either regular medium or in medium without glucose for 24 h. Nucleotide levels were measured by LC-MS. Purine/pyrimidine ratio was calculated by dividing (AMP+GMP) AUC by (UMP+CMP) AUC. B) 4T1 cells with and without shASS1 were grown in glucose free medium either supplemented or not with 10 mM L-Name for 48 hrs. Nucleotide levels were measured by LC-MS. Purine/pyrimidine ratio was calculated by dividing the sum levels of (AMP+GMP) by the sum levels of (UMP+CMP+TMP). […] MC38 cells were grown either with or without 300 µM mizoribine for 24 h. Nucleotide levels were measured by LC-MS. […] Cell viability was measured by crystal violet staining. […]
LC-MS analysis: The LC-MS/MS instrument consisting of an Acquity I-class UPLC system (Waters) and Xevo TQ-S triple quadrupole mass spectrometer (Waters), equipped with an electrospray ion source, and operated in positive ion mode was used for analysis of nucleoside monophosphates. […] Nucleotide concentration was calculated using a standard curve of the relevant nucleotide concentration in each sample. Standard curves included increasing concentration of all measured nucleotides ranging from 0-10 ug/ml that were positioned at the beginning and at the end of each run. […]

[1] = corrected for protein concentration

NC(=O)c1ncn([C@@H]2O[C@H](CO)[C@@H](O)[C@H]2O)c1O [Mizoribine, mizoribine]
purine/pyrimidine ratio (AMP+GMP)/(UMP+CMP) (4T1 breast cancer cells): decreased purine/pyrimidine ratio | AMP level, Mizoribine treatment (4T1 breast cancer cells; [1]): 483.2 µg/ml/ pt | CMP level, Mizoribine treatment (4T1 breast cancer cells; [1]): 7.3 µg/ml/ pt | GMP level, Mizoribine treatment (4T1 breast cancer cells; [1]): 28.46 µg/ml/ pt | UMP level, Mizoribine treatment (4T1 breast cancer cells; [1]): 38.39 µg/ml/ pt | purine/pyrimidine ratio (AMP+GMP) AUC/(UMP+CMP) AUC (MC38 cells): decreased purine/pyrimidine ratio
